In one data set the test system is His-tagged NSD2 PWWP1. Put plainly: TR-FRET cooperativity (competition) assay: displacement of biotinylated NSD2 ligand UNC7096. Format: binding, human. An excerpt: Because of the direct interactions observed between FBXO22 and NSD2, we hypothesized that some degree of cooperative binding could facilitate complex stabilization. Therefore, we developed a TR-FRET assay to monitor the interaction between his-tagged NSD2 and a biotinylated NSD2 ligand, UNC7096, that is missing the modality for FBXO22-recruitment (Supplementary Fig. 3D)[20]. Given the positive FRET signal observed when both NSD2 PWWP1 and UNC7096 are present, we used this setup to evaluate the displacement of UNC7096 by UNC10088 in the presence or absence of the FBXO22 FIST domain (Supplementary Fig. 3D). […] Importantly, this FBXO22-dependent enhancement of NSD2 antagonism by UNC10088 was absent when C326 was substituted for alanine (Supplementary Fig. 3F). Taken together, the SCF^FBXO22-NSD2 PWWP1 structure both confirms prior results and provides additional insight into the surfaces that contribute to a cooperative interaction between NSD2 and FBXO22 to promote potent NSD2 polyubiquitination and degradation.
The TR-FRET assay was adapted to assess cooperativity from the following workflows previously reported[39],[40]. Assays were performed in white, low-volume, flat-bottom, nonbinding 384-well microplates (Greiner, Catalog No. 784904) with a final assay volume of 10 μL per well. The assay buffer contained 20 mM Tris–HCl (pH 7.5) and 150mM NaCl, 0.05% Tween-20 (v/v), 2mM DTT, and 1% DMSO (v/v). LANCE Europium (Eu)-W8044 Streptavidin conjugate (2 nM) and LANCE Ultra ULight-anti6x-His labeled antibodies (10 nM) were used as donor and acceptor fluorophores associated with the tracer ligand and protein, respectively. Final assay concentrations of 63 nM His-tagged NSD2 PWWP1 and 31 nM of UNC7096 (a biotinylated version of the NSD2 ligand) as a tracer ligand were used for compound testing. UNC8732, UNC10088, and UNC10415667 were diluted in a 10-point, 3-fold serial dilution, and indicated compounds were pre-incubated with FBXO22 FIST for 30 min. A master mix of NSD2 PWWP1, UNC7096, and TR-FRET reagents was made prior to its addition to the compounds and/or FBXO22 FIST. The plates were sealed with metallic covers, mixed gently for 1 min, and incubated in the dark for 1 h. After 1 h, the plate was read on an EnVision 2103 plate reader with a 320 nm excitation filter and 615 nm/ 665 nm emission filters simultaneously with a dual mirror D400/D630 and a 100 μs delay. […] Raw TR-FRET signals were normalized to a high inhibition control (10 μM of UNC10088) and negative control (1% DMSO). The normalized TR-FRET signals were plotted against the compound concentrations. […] Ki values were calculated from the IC50s using the tight-binding model[41],[42]. The cooperativity factor (α) was calculated as the ratio of Ki (Binary)/ Ki (Ternary), with α > 1 indicating positive cooperativity between NSD2 PWWP1 and FBXO22 FIST based on its disruption of NSD2 binding to UNC7096.
In general terms: Time-resolved FRET reads energy transfer from a long-lived donor to a nearby acceptor.

For data set [1], the target named is T1, NSD2 (long and short forms) (Homo sapiens, UniProt O96028).
T1 sequence (O96028 211-350 limits assumed): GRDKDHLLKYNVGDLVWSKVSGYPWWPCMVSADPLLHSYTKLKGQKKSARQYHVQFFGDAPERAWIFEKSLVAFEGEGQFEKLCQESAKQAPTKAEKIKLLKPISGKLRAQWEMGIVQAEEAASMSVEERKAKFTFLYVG
Put plainly: Western blot of NSD2 in HEK293T cells. The format is cell-based. The settings on record: 10 µM, 6 hrs, vs DMSO. How it is done: HEK293T and U2OS were obtained from ATCC and cultured in high-glucose-containing Dulbecco’s Modified Eagle’s Medium (DMEM; Gibco; cat. #11995) supplemented with 10% fetal bovine serum (VWR) and 1% penicillin/streptomycin (Gibco). Cells were treated with either UNC10415667, UNC12149, UNC12567, hemin (Sigma; cat. #H9039), or DMSO control for the indicated times and analyzed by western blot using standard procedures. Briefly, cells were lysed on ice for 15 min in NETN lysis buffer (20 mM Tris pH 8.0, 100 mM NaCl, 0.5 mM EDTA, 0.5% NP40) supplemented with 10 µg/mL aprotinin, 10 µg/mL leupeptin, 10 µg/mL pepstatin A, 1 mM sodium orthovanadate, 1 mM sodium fluoride, and 1 mM AEBSF (4-[two aminoethyl] benzenesulfonyl fluoride). Cell lysates were centrifuged at 20,000×g in a benchtop microcentrifuge at 4 °C for 10 min. Protein concentration was determined by Bradford assay (Bio-Rad; cat. #5000006). Protein concentration was normalized using Laemmli buffer. Samples were heated for 5 min at 95°C in a dry water-bath. Samples were separated on TGX stain free gels (Bio-Rad) transferred to nitrocellulose membrane and blocked in 5% non-fat dry milk (Biorad; cat. #1706404) diluted in 1x TBS-T (137 mM NaCl, 2.7 mM KCl, 25 mM Tris pH 7.6, 1% Tween-20). Primary antibody incubations (Anti-NSD2 (Abcam; Cat# ab75359; Lot# 1093214-1; 1:1000 dilution), Anti-BACH1 (Fortis Life Sciences; Cat# A303-805A; Lot# 1; 1:1000 dilution), and Anti-GAPDH (Santa Cruz Biotechnology; Cat# sc-47724; Lot# C1023; 1:1000 dilution)) were performed overnight at 4 °C. Secondary antibodies (Peroxidase AffiniPure Goat Anti-Rabbit IgG (H + L) (Jackson Immuno; Cat# 111-035-003; 1:5000 dilution) and Peroxidase AffiniPure Goat Anti-Mouse IgG (H + L) (Jackson Immuno; Cat# 115-035-003; 1:5000 dilution)) were incubated for 1 h at room temperature. Blots were developed by chemiluminescence using Pierce ECL (Thermo Fisher Scientific; cat. #32106).

In a further data set the test system is U2OS cells. Put plainly: CellTiter-Glo cell viability assay. The settings on record: 1 µM, 6 h. Format: cell-based, human. The protocol:
The cell viability of NSD2 HiBiT U2OS P112 and parental U2OS cell lines treated with NSD2 degrader was determined by the CellTiter-Glo 2.0 Cell Viability Assay (Promega, G9242). 384-well plates (Corning) with cells and the reagent were equilibrated to the room temperature before detection. The reagent was added to the assay plate according to the product instruction and allowed to incubate on an orbital shaker for 3 min at room temperature before subjecting the plate to the GloMax luminometer (Promega). The data and graphs were then analyzed and generated using GraphPad Prism (v 10.4.1)
For orientation: ATP-based viability assays read luminescence as a measure of living cells.

For `O=C1COc2cc(C(=O)N(Cc3ccc(C(=O)Nc4ccc5c(c4)CCN(C(=O)CCCCC(O)S(=O)(=O)O)C5)cc3)C3CC3)ccc2N1` (stereo not drawn) [UNC10088], the “fold reduction of IC50 upon addition of FBXO22” value in the data set with His-tagged NSD2 PWWP1 (IC50 alone vs with FBXO22 FIST) is given as “about 2.5 fold”. Also, in the data set with His-tagged NSD2 PWWP1 (NSD2 PWWP1 with vs without FBXO22 FIST, with preincubation), the “cooperativity factor (α) = Ki (Binary)/Ki (Ternary)” value stood at 3.3. Besides, in the data set with His-tagged NSD2 PWWP1 (compound not preincubated with FBXO22), the “cooperativity factor (α) without preincubation” value was 3.1. Further, the “NSD2 levels by immunoblot” value in data set [1] is recorded as “degradation of NSD2”.

For the molecule `O=Cc1ccc(C(=O)N2CCc3cc(NC(=O)c4ccc(CN(C(=O)c5ccc6c(c5)OCC(=O)N6)C5CC5)cc4)ccc3C2)cc1` [UNC10415667], the cell viability result in the data set with U2OS cells is “did not impact cell viability”. Besides, the “NSD2 levels by immunoblot” value in data set [1] was “completely degraded”.

These data come from publication PMC13316043, “Structural basis of NSD2 degradation via targeted recruitment of SCF-FBXO22” (Nature Communications, 2026).
